Here are results for one substance from patent US9512425B2, “Inhibiting migration of cancer cells” (Cornell University, priority 2012, dated 2016).

The test system of one data set is MDA-MB-231 cells. Put plainly: Orthotopic MDA tumor / pulmonary metastasis model, bioluminescence imaging. Type of data set: in vivo, CB-17 SCID mice. The procedure: For orthotopic injection, 1×10^6 viable MDA-MB-231, MDA-Cont, or MDA-miR-708 cells were injected into CB-17 SCID mice fat pads in a volume of 0.1 ml. Tumor growth and pulmonary metastases (following resection of primary tumor) were monitored by live animal bioluminescent imaging (Xenogen IVIS system) once per week.
Mice inoculated with firefly luciferase were anaesthetized and injected retro-orbitally with 75 mg/kg of D-luciferin (30 mg/mL in PBS). Images were taken with mice in a supine position using the Xenogen IVIS system coupled to Living Image acquisition and analysis software (Xenogen). For bioluminescence (BLI) plots, photon flux was calculated for each mouse by using a rectangular region of interest encompassing the thorax of the mouse.

The next data set deals with p-FAK (S910). Put plainly: Western blot and immunostaining of p-FAK. Type of data set: cell-based, human. The protocol:
Cells were homogenized in 1×RIPA lysis buffer (Millipore) containing protease inhibitors (Roche Applied Science) and 1× phosphatase inhibitor (Thermo Scientific). Samples were boiled in 1× NuPAGE LDS sampling buffer (Invitrogen), and loaded onto 4-20% gradient Tris-HCl gels (BioRad). Western blotting was performed using antibodies specific for NNAT (Cat#AB27266, Abcam), EPDR1 (Cat# SC81820, Santa Cruz), SSRP1 (Cat#SC56782, Santa Cruz), HOXB3 (Cat# SC17161, Santa Cruz), HNRNPK (Cat# SC28380, Santa Cruz), CNTFR, Phospho-p44/42 MAPK (Erk1/2, Cat #4370, Cell Signaling), p44/42 MAPK (Erk1/2, Cat #4695, Cell Signaling), VINCULIN (Cat#V9131, Sigma-Aldrich), and β-ACTIN (Sigma-Aldrich).
For immunofluorescence staining, cells were fixed overnight in paraformaldehyde before incubation with primary antibodies; mouse-monoclonal VINCULIN (Cat#V9131, Sigma-Aldrich, 1:400) and rabbit-polyclonal phosphorylated FAK (pS910, Cat #44596G, Invitrogen, 1:1000). Alexa Flour 568 or Alexa Fluor 647 anti-mouse IgG, and Alexa Fluor 647 anti-rabbit IgG (Invitrogen), were used for visualization. Following incubation with secondary antibodies the tissue sections were treated with Rhodamine Phalloidin (Cat# R415, Invitrogen). […] Images were analyzed using Axiovision 4.6 software (Carl Zeiss Inc.).

The subject of the next data set is cortical actin. Briefly: Immunostaining for vinculin and F-actin (phalloidin). The data set is classed as cell-based, human. The note with it: MDA-miR-708 cells. The protocol: For immunofluorescence staining, cells were fixed overnight in paraformaldehyde before incubation with primary antibodies; mouse-monoclonal VINCULIN (Cat#V9131, Sigma-Aldrich, 1:400) and rabbit-polyclonal phosphorylated FAK (pS910, Cat #44596G, Invitrogen, 1:1000). Alexa Flour 568 or Alexa Fluor 647 anti-mouse IgG, and Alexa Fluor 647 anti-rabbit IgG (Invitrogen), were used for visualization. Following incubation with secondary antibodies the tissue sections were treated with Rhodamine Phalloidin (Cat# R415, Invitrogen). Fluorescent images were obtained using a computerized Zeiss fluorescent microscope (Axiovert 200M), fitted with an apotome and an HRM camera. Images were analyzed using Axiovision 4.6 software (Carl Zeiss Inc.).

In a further data set the test system is Nnat. Put plainly: Nnat expression in MDA-MB-436 cells overexpressing miR-708. Type of data set: cell-based, human. As to conditions: MDA-MB-436 cells expressing miR-708. The protocol: Total RNA was extracted using the RNeasy kit (Qiagen) and converted to cDNA using Superscript II reverse transcriptase (Invitrogen). QPCR primers for Nnat were purchased from SABiosciences (Cat #PPT11378, SABiosciences), and quantitative PCR performed using iQ™ SYBER Green master mix (Biorad, Hercule, Calif.). Each sample was run in triplicate to minimize pipetting error. A standard protocol of initial denaturation at 95° C. for 3 min, 40 cycles of 95° C. for 20 sec, 60° C. for 30 sec, and 72° C. for 30 sec, followed by final extension at 72° C. for 5 min and melt curve analysis was applied on a Biorad CFX96 Real Time System (BioRad) coupled with Bio-Rad-CFX Manager software. The relative abundance of each transcript was compared with the control.

Take “miR-708: microRNA, mature sequence 5'-AAGGAGCUUACAAUCUAGCUGGG-3' (SEQ ID NO: 2); expressed from lentiviral vector or used as synthetic precursor”: in the data set on MDA-MB-231 cells (MDA-miR-708 vs MDA-pZeo control, day 30), the “primary tumor growth (bioluminescence imaging)” value was “no change”. The “lung metastases (bioluminescence)” value in the data set with MDA-MB-231 cells (MDA-miR-708 vs control, primary tumors resected day 30, day 37) was “significantly suppressed”; in the data set with MDA-MB-231 cells (constitutive miR-708 in MDA cells, primary tumors resected day 60, day 74) it was “suppressed lung metastases”. Also, the “primary tumor growth (bioluminescence)” value with MDA-MB-231 cells (constitutive miR-708 in MDA cells, mammary fat pad, day 60) was “no significant difference”. Moreover, in the data set with MDA-MB-231 cells (doxycycline-mediated induction of miR-708, day 60), the primary tumor growth entry is on record as “not affected”. The metastases entry in the data set on MDA-MB-231 cells (doxycycline-mediated induction of miR-708, day 74) is listed as “attenuated metastases”. Also, the “p-FAK levels following ATP-mediated Ca^2+ release” value in the data set with p-FAK (S910) (Western blot, MDA-miR-708 vs MDA cells) is “increased in MDA and not in MDA-miR-708 cells”. In addition, the “p-FAK at vinculin+ focal adhesions” value in the data set on p-FAK (S910) (immunostaining, MDA-miR-708 cells) was “devoid of p-FAK”. Also, the cortical actin phenotype entry in the data set with cortical actin is recorded as “thick bands of cortical actin rings”. For the same substance, the Nnat levels entry in the data set on Nnat is “decreased levels of Nnat”.
